From patent US11911442B2, “Use of soluble pro(renin) receptor to treat metabolic disorders and related conditions” (priority 2017, dated 2024) come the findings set out here.

The subject of assay [1] is mouse model of NDI. In words: Mouse model of NDI induced with V2R antagonist OPC. Type of assay: in vivo. The source says:
Mice were placed in metabolic cages for assessment of daily water intake and urine output. (A) daily water intake (n=4 mice per group). (B) Daily urine output (n=4 mice per group). (C) Urine osmolality (n=4 mice per group). (D) Urinary sPRR excretion (n=4 mice per group). Data are shown as mean±SE. In A-C, #P<0.05 vs. OPC alone; in D*P<0.05 vs. control. (E) Schematic illustration of the mechanism of action of sPRR. In the lumen of the distal nephron, sPRR binds FZD8 in a receptor complex on the apical membrane of principal cells, resulting in the activation of β-catenin, which promotes cAMP accumulation, ultimately leading to increased AQP2 transcription and enhanced urine concentration.
In support of this notion, it has been shown that exposure of the CD cells to AVP stimulates the release of sPRR. FIG. 8E provides a schematic illustration of the mechanism of action of sPRR in the CD principal cells.
Urinary or medium sPRR was determined using a commercially sPRR enzyme immunoassay (EIA) kit (catalog no. JP27782; Immuno-Biological Laboratories) according to the manufacturer's instructions.

Assay [2] concerns Sprague-Dawley (SD) rats. In words: Water balance and renal AQP2 in SD rats, basal and water deprivation. Format: in vivo, rat. As for the experimental part: FIGS. 6A-6H show a role of the Wnt/β-catenin pathway in urine-concentrating capability in rats. SD Rats were administered vehicle, OMP, or XAV and were placed in metabolic cages for assessment of the state of water metabolism at basal condition (A-C) or after 24-h WD (D-H) (n=5 rats per group). At basal the condition, water intake (A), urine volume (B), and urine osmolality (C) were determined. (D-F) During 24-h WD, urine volume (D), urine osmolality (E), and body-weight (BW) changes (F) were monitored. (G and H) At the end of the experiment plasma osmolality (G) and Hct (H) were measured. *P<0.05 vs. control; #P<0.05 vs. WD alone.
FIGS. 7A-7F show an in vivo role of the Wnt/β-catenin pathway in the regulation of renal AQP2 expression during antidiuresis in rats. (A and B) To assess renal β-catenin activation by WD, the nuclear fraction of renal cortex (n=4 rats per group) (A) and the inner medulla (n=4 rats per group) (B) from control and dehydrated rats were subjected to immunoblotting analysis of β-catenin. (C-F) Immunoblotting analysis of AQP2 expression was performed on the renal cortex and the inner medulla of rats treated with vehicle or WD with (C) or without (D) OMP or with (E) or without (F) XAV (n=5 rats per group). Data are shown as mean±SE; *P<0.05 vs. control; #P<0.05 vs. WD. CO, cortex; IM, inner medulla.
To probe the in vivo role of β-catenin signaling in fluid homeostasis, OMP and XAV were administered to Sprague-Dawley (SD) rats under basal conditions and during […] water deprivation (WD) and evaluated their impact on water balance.
Renal tissues were lysed and subsequently sonicated. Protein concentrations were determined using Coomassie reagent. Forty micrograms of protein from each sample were denatured in boiling water, separated by SDS/PAGE, and transferred onto nitrocellulose membranes. Blots were blocked 1 h with 5% nonfat dry milk in Tris-buffered saline (TBS), followed by overnight incubation with primary antibody. After washing with TBS, blots were incubated with goat anti-rabbit/mouse HRP-conjugated secondary antibody and visualized using ECL. The blots were quantitated by using Image-Pro Plus (Media Cybernetics). The primary antibodies were goat anti-AQP2 antibody, rabbit anti-PRR-N antibody, and rabbit anti-FZD8 antibody (all from Santa Cruz), rabbit anti-V2R antibody (Abcam), and goat anti-β-catenin antibody (Novus).

For assay [3], the system named is Wnt/β-catenin pathway. In words: Acute and chronic responses to AVP (cAMP, AQP2) in primary rat IMCD cells. Type of assay: cell-based. The following applies: XAV pretreatment 1 h. The protocol:
FIGS. 5A-5F show a distinct role of the Wnt/β-catenin pathway in the acute and chronic responses to AVP in primary rat IMCD cells. The IMCD cells were pretreated for 1 h with XAV and were treated for 30 min or 24 h with 10 nM AVP. (A) At 30 min of AVP treatment, the medium was assayed for cAMP using ELISA (n=6 per group). (B and C) Membrane fraction (n=6 per group) (B) and cytosolic fraction (n=6 per group) (C) were subjected to immunoblotting analysis of AQP2. (D-F) At 24 h, medium cAMP was determined (n=6 per group) (D), whole-cell lysates were subjected to immunoblotting analysis of AQP2 (n=6 per group) (E), and total RNA was subjected to quantitative RT-PCR analysis of AQP2 mRNA (n=4 per group) (F). Data are shown as mean±SE; *P<0.05 vs. control; #P<0.05 vs. AVP alone.
For sPRR signaling studies, primary IMCD cells were prepared from 4-wk-old SD rats as previously described (35). The cells were grown in Transwell plates (catalog no. 29442-074; VWR International) with DMEM/F-12 medium containing 10% (vol/vol) FBS, 0.5 μM 8-Br-cAMP, 130 mM NaCl, and 80 mM urea. […] At the end of the experiments, the medium was collected for biochemical assays.
The membrane and cytosolic fractions of proteins were extracted using a kit according to the manufacturer's instructions (catalog no. BSP002; Bio Basic Inc.).

Assay [4] relates to AQP2. In words: AQP2 expression in primary rat IMCD cells (quantitative RT-PCR, immunoblotting). Type of assay: cell-based. The following applies: inhibitor 10 μM pretreatment 1 h, then 10 nM sPRR-His 24 h. For orientation: A western blot detects proteins with antibodies after separation by electrophoresis.

For `Cc1ccccc1C(=O)Nc1ccc(C(=O)N2CCCC(N(C)C)c3ccccc32)cc1` (centres unmarked) [OPC], the “water intake, urine output, urine osmolality” value in assay [1] (C57/BL6 mice, OPC via gavage 30 mg·kg^−1·d^−1 for 3 d) is “polydipsia, polyuria, and hypoosmotic urine”. Besides, the “urinary sPRR excretion” value in assay [1] (OPC-treated mice) is “suppressed significantly”.
Regarding `Oc1nc(-c2ccc(C(F)(F)F)cc2)nc2c1CSCC2` [XAV939], the “WD-induced increase of AQP2 protein abundance in renal cortex and inner medulla” value in assay [2] (WD, immunoblotting) is on record as “attenuated significantly”. The “water balance (urine volume, water intake, urine osmolality)” value in assay [2] (basal conditions, administration over 48 h) was “polyuria, polydipsia, and hypoosmotic urine”. Further, in assay [2] (during 48-h WD), the “plasma osmolality and hematocrit (Hct)” value is “greater increases”; the urine osmolality result is “decreased”; the urine volume result is given as “increased”; the weight loss result is on record as “exaggerated”. Besides, the “rapid rise of cAMP and redistribution of AQP2 from the cytosol to the membrane in response to AVP” value in assay [3] (30-min exposure to 10 nM AVP) was “unaffected”. The “AVP-induced increases in cAMP level, total protein abundance and mRNA expression of AQP2” value in assay [3] (24 h 10 nM AVP) is reported as “effectively attenuated”. Also, the “sPRR-His-induced AQP2 protein expression, effect of inhibitor” value in assay [4] is “blunted”.
